Reference: ChEMBL document CHEMBL1158637, “Orally bioavailable dual MMP-1/MMP-14 sparing, MMP-13 selective alpha-sulfone hydroxamates” (Bioorg Med Chem Lett, 2010)

Columns and labels:
Matrilysin = biological target: T1, Matrilysin (Homo sapiens, UniProt P09237); assay: Inhibition of MMP7
T1 sequence (P09237 whole entry): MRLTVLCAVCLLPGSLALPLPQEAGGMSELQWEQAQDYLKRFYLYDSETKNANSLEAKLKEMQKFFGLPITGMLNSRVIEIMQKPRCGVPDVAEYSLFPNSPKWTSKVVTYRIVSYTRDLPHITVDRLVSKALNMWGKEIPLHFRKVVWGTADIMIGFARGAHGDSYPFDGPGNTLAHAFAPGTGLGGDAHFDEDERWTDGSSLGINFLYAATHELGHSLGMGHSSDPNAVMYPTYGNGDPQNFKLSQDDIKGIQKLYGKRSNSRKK

[1] = biological target: 72 kDa type IV collagenase (Homo sapiens, UniProt P08253); assay: Inhibition of MMP2
Chain of 72 kDa type IV collagenase (P08253 whole entry): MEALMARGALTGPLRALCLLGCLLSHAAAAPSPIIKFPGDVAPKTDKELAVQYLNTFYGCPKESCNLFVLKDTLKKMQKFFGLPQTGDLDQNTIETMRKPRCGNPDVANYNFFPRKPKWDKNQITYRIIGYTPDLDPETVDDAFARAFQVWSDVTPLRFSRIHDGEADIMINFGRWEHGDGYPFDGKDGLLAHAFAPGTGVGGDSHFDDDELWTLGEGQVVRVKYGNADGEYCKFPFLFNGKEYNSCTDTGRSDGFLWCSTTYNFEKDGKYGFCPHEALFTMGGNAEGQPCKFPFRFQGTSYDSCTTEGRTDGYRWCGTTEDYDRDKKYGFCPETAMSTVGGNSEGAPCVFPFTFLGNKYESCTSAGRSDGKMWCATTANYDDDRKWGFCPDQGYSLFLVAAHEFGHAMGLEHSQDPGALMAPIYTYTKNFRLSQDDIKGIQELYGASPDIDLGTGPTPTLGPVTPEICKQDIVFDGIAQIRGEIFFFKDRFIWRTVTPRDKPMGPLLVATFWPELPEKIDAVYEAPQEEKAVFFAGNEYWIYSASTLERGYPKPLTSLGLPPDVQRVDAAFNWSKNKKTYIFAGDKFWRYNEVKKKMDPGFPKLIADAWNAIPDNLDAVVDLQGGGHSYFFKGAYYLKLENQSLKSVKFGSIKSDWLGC

Neutrophil collagenase = Neutrophil collagenase (Homo sapiens, UniProt P22894); assay: Inhibition of MMP8
Chain of Neutrophil collagenase (P22894 whole entry): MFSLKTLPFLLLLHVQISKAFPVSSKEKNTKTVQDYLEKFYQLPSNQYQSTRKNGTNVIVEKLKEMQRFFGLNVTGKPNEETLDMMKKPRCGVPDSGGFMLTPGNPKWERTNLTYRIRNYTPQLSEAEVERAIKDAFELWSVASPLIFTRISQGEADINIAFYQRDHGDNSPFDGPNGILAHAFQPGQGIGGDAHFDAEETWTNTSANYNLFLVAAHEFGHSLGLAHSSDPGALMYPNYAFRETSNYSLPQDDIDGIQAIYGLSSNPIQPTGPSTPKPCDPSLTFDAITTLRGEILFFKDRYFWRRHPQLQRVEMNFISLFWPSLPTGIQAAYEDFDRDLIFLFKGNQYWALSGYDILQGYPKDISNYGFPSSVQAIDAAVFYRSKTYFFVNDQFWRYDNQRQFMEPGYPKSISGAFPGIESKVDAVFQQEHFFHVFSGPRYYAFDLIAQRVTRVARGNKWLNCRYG

Stromelysin-1 = Stromelysin-1 (Homo sapiens, UniProt P08254); assay: Inhibition of MMP3
Chain of Stromelysin-1 (P08254 whole entry): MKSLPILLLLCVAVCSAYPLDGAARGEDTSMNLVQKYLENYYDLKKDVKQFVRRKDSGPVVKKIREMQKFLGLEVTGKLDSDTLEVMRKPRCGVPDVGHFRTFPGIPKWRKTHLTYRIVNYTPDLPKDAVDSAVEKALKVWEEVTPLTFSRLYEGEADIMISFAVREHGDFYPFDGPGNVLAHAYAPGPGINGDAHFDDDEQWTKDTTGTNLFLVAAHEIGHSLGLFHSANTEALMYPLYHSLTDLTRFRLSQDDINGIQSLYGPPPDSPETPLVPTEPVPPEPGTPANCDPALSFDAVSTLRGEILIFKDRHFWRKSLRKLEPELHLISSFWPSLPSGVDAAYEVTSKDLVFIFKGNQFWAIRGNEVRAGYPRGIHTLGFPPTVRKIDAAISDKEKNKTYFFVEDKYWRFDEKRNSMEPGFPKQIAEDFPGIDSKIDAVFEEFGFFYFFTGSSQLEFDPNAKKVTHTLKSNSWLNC

Interstitial collagenase = Interstitial collagenase (Homo sapiens, UniProt P03956); assay: Inhibition of MMP1
Chain of Interstitial collagenase (P03956 whole entry): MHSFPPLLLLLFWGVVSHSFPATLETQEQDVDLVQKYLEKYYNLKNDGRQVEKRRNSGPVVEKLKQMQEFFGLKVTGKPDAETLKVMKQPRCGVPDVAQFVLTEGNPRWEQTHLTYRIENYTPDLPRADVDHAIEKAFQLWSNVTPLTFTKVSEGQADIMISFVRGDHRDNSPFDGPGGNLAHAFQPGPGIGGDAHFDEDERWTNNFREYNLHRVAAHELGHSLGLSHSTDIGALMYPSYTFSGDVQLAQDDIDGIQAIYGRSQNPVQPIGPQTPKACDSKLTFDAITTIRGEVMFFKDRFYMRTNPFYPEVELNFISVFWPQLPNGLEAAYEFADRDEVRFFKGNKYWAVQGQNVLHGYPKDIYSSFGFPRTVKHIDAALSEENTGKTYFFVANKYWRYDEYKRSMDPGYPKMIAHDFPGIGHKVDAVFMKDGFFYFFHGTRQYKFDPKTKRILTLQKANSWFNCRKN

[2] = Selectivity ratio of IC50 for MMP2 to IC50 for MMP13
Collagenase 3 = Collagenase 3 (Homo sapiens, UniProt P45452); assay: Inhibition of MMP13
[3] = Oral bioavailability in rat; type: ADME, organism-based; conditions: in vivo
[4] = Half life in rat; type: ADME, organism-based; conditions: in vivo

Compound	IC50 [1]	Ratio IC50 [2]	IC50 (Collagenase 3)	other results
C#CCN1CCC(C(=O)NO)(S(=O)(=O)c2ccc(Sc3ccccc3)cc2)CC1	0.00033 µM	–	–	IC50 (Matrilysin): > 10 µM; IC50 (Neutrophil collagenase): 0.0018 µM; IC50 (Stromelysin-1): 0.013 µM; IC50 (Interstitial collagenase): 8.66 µM
O=C(NO)C1(S(=O)(=O)c2ccc(N3CCC(c4ccc(Cl)cc4)CC3)cc2)CCOCC1	–	2.9	–	–
CCOc1ccccc1C1CCN(c2ccc(S(=O)(=O)C3(C(=O)NO)CCOCC3)cc2)CC1	–	88.6	–	–
O=C(NO)C1(S(=O)(=O)c2ccc(N3CCN(c4cccc(C(F)(F)F)c4)CC3)cc2)CCOCC1	0.33 µM	16.5	0.02 µM	–
COc1ccccc1C1CCN(c2ccc(S(=O)(=O)C3(C(=O)NO)CCOCC3)cc2)CC1	3.7 µM	211	0.0175 µM	–
O=C(NO)C1(S(=O)(=O)c2ccc(N3CCN(c4ccccc4)CC3)cc2)CCN(C2CC2)CC1	0.0054 µM	1.6	0.0033 µM	–
COc1ccc(N2CCN(c3ccc(S(=O)(=O)C4(C(=O)NO)CCN(C5CC5)CC4)cc3)CC2)cc1	0.0053 µM	–	0.00042 µM	bioavailability [3]: 20.7%; half-life [4]: 0.24 h; IC50 (Neutrophil collagenase): 0.0592 µM; IC50 (Stromelysin-1): 0.0245 µM; IC50 (Interstitial collagenase): > 10 µM
O=C(NO)C1(S(=O)(=O)c2ccc(N3CCC(c4ccccc4O)CC3)cc2)CCOCC1	–	6.2	–	–
COc1ccc(C(C)C)cc1C1CCN(c2ccc(S(=O)(=O)C3(C(=O)NO)CCOCC3)cc2)CC1	> 10 µM	143	0.07 µM	–
Cc1ccccc1C1CCN(c2ccc(S(=O)(=O)C3(C(=O)NO)CCOCC3)cc2)CC1	0.7 µM	21.4	0.0327 µM	–
COc1ccc(OC)c(C2CCN(c3ccc(S(=O)(=O)C4(C(=O)NO)CCOCC4)cc3)CC2)c1	0.8 µM	70.2	0.0114 µM	–
O=C(NO)C1(S(=O)(=O)c2ccc(N3CCC(c4ccccc4)CC3)cc2)CCOCC1	–	0.7	–	–
O=C(NO)C1(S(=O)(=O)c2ccc(N3CCN(c4ccc(C(F)(F)F)cc4)CC3)cc2)CCOCC1	0.0121 µM	–	0.0006 µM	bioavailability [3]: 16.3%; half-life [4]: 2.59 h; IC50 (Matrilysin): > 10 µM; IC50 (Neutrophil collagenase): 0.67 µM; IC50 (Stromelysin-1): 0.3 µM; IC50 (Interstitial collagenase): > 10 µM
COc1ccc(N2CCN(c3ccc(S(=O)(=O)C4(C(=O)NO)CCOCC4)cc3)CC2)cc1	0.0184 µM	29	0.0005 µM	–
O=C(NO)C1(S(=O)(=O)c2ccc(N3CCC(c4ccccc4C(F)(F)F)CC3)cc2)CCOCC1	–	31.3	–	–
O=C(NO)C1(S(=O)(=O)c2ccc(N3CCC(c4ccccc4Cl)CC3)cc2)CCOCC1	0.082 µM	1.9	0.0425 µM	–
COc1ccc(C2CCN(c3ccc(S(=O)(=O)C4(C(=O)NO)CCOCC4)cc3)CC2)c(C)c1	–	72.1	–	–
O=C(NO)C1(S(=O)(=O)c2ccc(N3CCC(c4ccccc4-c4ccc(F)cc4)CC3)cc2)CCOCC1	–	160	–	–
COc1ccc(C2CCN(c3ccc(S(=O)(=O)C4(C(=O)NO)CCOCC4)cc3)CC2)c(OC)c1	–	159	–	–
O=C(NO)C1(S(=O)(=O)c2ccc(N3CCC(c4cccc5ccccc45)CC3)cc2)CCOCC1	–	43.9	–	–
O=C(NO)C1(S(=O)(=O)c2ccc(N3CCN(c4ccc(C(F)(F)F)cc4)CC3)cc2)CCN(C2CC2)CC1	0.0326 µM	13.6	0.0024 µM	–

Further lines, with some results ahead:

IC50 [1]	Ratio IC50 [2]	IC50 (Collagenase 3)	Compound	other results
–	13.8	–	O=C(NO)C1(S(=O)(=O)c2ccc(N3CCN(c4ccccc4)CC3)cc2)CCOCC1	–
–	4.4	–	O=C(NO)C1(S(=O)(=O)c2ccc(N3CCN(c4ccccc4Cl)CC3)cc2)CCOCC1	–
0.0485 µM	6.1	0.008 µM	COc1cccc(N2CCN(c3ccc(S(=O)(=O)C4(C(=O)NO)CCOCC4)cc3)CC2)c1	–
–	18.4	–	Cc1ccc(N2CCN(c3ccc(S(=O)(=O)C4(C(=O)NO)CCOCC4)cc3)CC2)cc1	–
–	2.8	–	COc1ccccc1N1CCN(c2ccc(S(=O)(=O)C3(C(=O)NO)CCOCC3)cc2)CC1	–
–	11.4	–	Cc1ccccc1N1CCN(c2ccc(S(=O)(=O)C3(C(=O)NO)CCOCC3)cc2)CC1	–
–	7.8	–	O=C(NO)C1(S(=O)(=O)c2ccc(N3CCN(c4ccccc4F)CC3)cc2)CCOCC1	–
1.4 µM	49	0.0286 µM	Cc1ccc(N2CCN(c3ccc(S(=O)(=O)C4(C(=O)NO)CCOCC4)cc3)CC2)c(C)c1	–
0.0037 µM	–	0.001 µM	O=C(NO)C1(S(=O)(=O)c2ccc(N3CCN(c4ccc(Cl)cc4)CC3)cc2)CCOCC1	bioavailability [3]: 7.4%; half-life [4]: 1.91 h; IC50 (Neutrophil collagenase): 1 µM; IC50 (Stromelysin-1): 0.13 µM; IC50 (Interstitial collagenase): > 10 µM
